Marks after values point to notes of the source that are not given here.
Experiments:
[1] = tested on: human colon carcinoma cell line, SW-480; assay: Growth inhibition, Sulforhodamine B (SRB) protein binding assay; format: cell-based; conditions: SW-480 cell line, six days continuous exposure
Description: These compounds were assayed for their growth inhibitory activity on the human colon carcinoma cell line, SW-480 obtained from ATCC (Rockville, Md.), to ascertain the degree of growth inhibition. Growth inhibition of this cell line is indicative of a benefit on precancerous lesions and neoplasms. The cell line and growth assay employed for these experiments are well characterized, and are used to evaluate the anti-neoplastic properties of NSAIDs. The assay is used by the United States National Cancer Institute in its screening program for new anti-cancer drugs.
Drug stock solutions were made in 100% DMSO then diluted with RPMI media for cell culture testing. All drug solutions were prepared fresh on the day of testing. The cultured cells were obtained at passage #99 and grown in RPMI media supplemented with 5% fetal calf serum, and 2 mM glutamine, 100 U/ml penicillin, 100 U/ml streptomycin, and 0.25 μg/ml amphotericin. The cultures were maintained in a humidified atmosphere of 95% air and 5% CO2 at 37° C. The cultures were passaged at preconfluent densities using a solution of 0.05% trypsin and 0.53 mM EDTA. Cells were plated at 1000 cells/well for 96 well flat-bottom microtiter plates.
Tumor cell growth inhibition was assessed using the Sulforhodamine B (SRB) protein binding assay. In this assay, tumor cells were plated in 96-well plates and treated with drug-containing media for six days (continuous exposure). For each plate, 6 wells were designated as no treatment controls, six wells as vehicle (0.1% DMSO) controls, and the remaining wells for drug dilutions with three wells per drug concentration. At the end of the exposure period, the cells were fixed and stained with sulforhodamine B, a protein binding dye. The dye was then solubilized, and the optical density of the resulting solution was determined on a 96-well plate reader. The mean dye intensity of the treated wells was then divided by the mean dye intensity in the control wells (6 wells of each) to determine the effect of the drug on the cells. Dye intensity is proportional to the number of cells or amount of protein per well. The resultant “percent inhibition” value then represents the degree of growth inhibition caused by the drug.
For each experiment, an IC50 value was determined and used for comparative purposes. This value is equivalent to the concentration of drug needed to inhibit tumor cell growth by 50%. IC50 values were obtained graphically by connecting the mean values for each drug concentration tested. Each experiment included at least three wells per drug concentration. Concentration was plotted on a log scale on the X-axis.

COX I = molecular target: T1, COX I (Ovis aries, UniProt P05979); assay: Cyclooxygenase (COX) inhibition, purified COX; format: biochemical; conditions: purified COX from ram seminal vesicles; for COX I % Inhibition (100 μM): 100 μM test compound, arachidonic acid 100 μM; for COX I % Inhibition (values marked *): values marked *: 1000 μM test compound
T1 construct: The COX was purified form ram seminal vesicles; from tissue; host or cells: ram seminal vesicles
T1 sequence (P05979 25-600): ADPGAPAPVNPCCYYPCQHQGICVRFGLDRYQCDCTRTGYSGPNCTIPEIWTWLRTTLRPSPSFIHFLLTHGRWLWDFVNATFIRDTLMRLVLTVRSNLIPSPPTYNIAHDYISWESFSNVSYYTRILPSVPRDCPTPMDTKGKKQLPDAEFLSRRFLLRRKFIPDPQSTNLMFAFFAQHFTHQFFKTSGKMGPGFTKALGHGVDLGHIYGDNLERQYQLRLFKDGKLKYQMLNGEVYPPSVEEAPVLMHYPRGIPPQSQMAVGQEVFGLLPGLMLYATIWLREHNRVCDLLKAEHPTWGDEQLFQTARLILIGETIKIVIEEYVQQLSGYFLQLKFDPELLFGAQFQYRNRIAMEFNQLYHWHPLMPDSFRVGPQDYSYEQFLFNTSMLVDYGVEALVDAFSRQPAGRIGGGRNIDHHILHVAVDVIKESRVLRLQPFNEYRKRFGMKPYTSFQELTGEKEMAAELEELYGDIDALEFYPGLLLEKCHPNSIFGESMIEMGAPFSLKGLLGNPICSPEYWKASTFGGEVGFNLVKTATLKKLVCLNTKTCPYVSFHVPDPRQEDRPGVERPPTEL
Description: Compounds of this invention, as well as a positive control, sulindac sulfide were to determine whether they inhibited the production of cyclooxygenase (see Table 5 below).
COX catalyzes the formation of prostaglandins and thromboxane by the oxidative metabolism of arachidonic acid. The compounds of this invention were evaluated for inhibitory effects on purified COX. The COX was purified form ram seminal vesicles, as described by Boopathy, R. and Balasubramanian, J. 239:371-377, 1988. COX activity was assayed as described by Evans, A. T., et al., “Actions of cannabis constituents on enzymes of arachidonate metabolism anti-flammatory potential,” Biochem. Pharmacol., 36:2035-2037, 1987. Briefly, purified COX was incubated with arachidonic acid (100 μM) for 2.0 min at 37° C. in the presence or absence of test compounds. The assay was terminated buy the addition of TCA, and COX activity was determined by absorbance at 530 nm.

[2] = tested on: HT-29 human colon carcinoma cells; assay: Apoptosis by morphology (acridine orange/ethidium bromide, condensed chromatin); format: cell-based; conditions: HT-29 cells
Description: Apoptosis was measured using an assay of cell death based on morphological characteristics of apoptotic cells (i.e., condensed chromatin). Drug preparation and cell culture conditions were the same as for the SRB assay described above, except that HT-29 human colon carcinoma cells were employed/Confluent cultures were established in 12.5 cm^2 flasks by plating 0.5×10^6 cells/flask. The cultures were assayed for apoptosis by fluorescent microscopy following labeling with acridine orange and ethidium bromide. Floating and attached cells were collected by trypsinization and washed three times in PBS. One ml aliquots were centrifuged (3 g). The pellet was resuspended in 25 μl media and 1 μl of a dye mixture containing 100 μg/ml acridine orange and 100 μg/ml ethidium bromide prepared in PBS and mixed gently. Ten μl of mixture was placed on a microscope slide and covered with a 22 mm^2 coverslip and examined under 40×dry objectives using epillumination and filter combination.
An observer blinded to the identity of the treatments scored at least 100 cells per sample. Apoptotic cells were identified by nuclear condensation of chromatin stained by the acridine orange or ethidium bromide.

[3] = tested on: SW-480 colon adenocarcinoma cells; assay: Apoptosis by DNA fragmentation (Cell Death Detection ELISA plus); format: cell-based, human; conditions: SW-480 cells, 48 hrs; for EC50: by software or estimated from effective concentration range; for DNA Fragmentation FS (100 μM): fold stimulation FS=ODmax/ODveh
Description: Apoptosis was also measured based on the amount of fragmented DNA contained in cell lysates. Briefly, SW-480 colon adenocarcinoma cells were plated in 96-well microtitre plates (“MTP”) at a density of 10K cells/well in 180 μl and incubated for 24 hrs. Cells were then treated with 20 μl aliquots of appropriately diluted compound, and allowed to incubate for an additional 48 hrs.
After the incubation, samples were prepared according to the following steps. The MTP was centrifuged (15 min., 1000 rpm) and the supernatant was carefully removed by fast inversion of the MTP. The cell pellents in each well were then resuspended in ^200 μl lysis buffer and incubated for 45 min. at room temperature to lyse the cells. The lysates were then centrifuged (15 min., 1000 rpm) and 20 μl aliquots of the supernatant (=cytoplasmic fraction) were transferred into the streptavidin coated MTP for analysis. Care was taken not to shake the lysed pellets in the MTP (=cell nucleii containing high molecular weight, unfragmented DNA). Samples were analyzed immediately, because storage at 4 C or −20 C reduces the ELISA-signals.
Samples were then processed according to a DNA fragmentation assay protocol, and dose-response curves were generated based on optical density readings. Quantification of DNA was done by a commercially available photometric enzyme-immunoassay manufactured by Mannheim-Boehringer under the name “Cell Death Detection ELISA^plus”. The assay is based on a quantitative sandwich-enzyme-immunoassay-principle using mouse monoclonal antibodies directed against DNA and histones, respectively. This allows the specific determination of mono and oligonucleosomes in the cytoplasmatic fraction of cell lysates. In brief, the assay procedure is as follows. The sample (cell-lysate, serum, culture-supernatant etc.) is placed into a streptavidin-coated MTP. Subsequently, a mixture of anti-histone-biotin and anti-DNA-POD are added and incubated for 2 hours. During the incubation period, the anti-histone antibody binds to the histone-component of the nucleosomes and simultaneously fixes the immunocomplex to the streptavidin-coated MTP via its biotinylation. Additionally, the anti-DNA-POD antibody reacts with the DNA component of the nucleosomes. After removal of unbound antibodies by a washing step, the amount of nucleosomes is quantified by the POD retained in the immunocomplex. POD is determined photometrically with ABTS® (2,2′-Azino-di[3-ethylbenzthiazolin-sulfonat])* as substrate.
Fold stimulation (FS=ODmax/ODveh), an indicator of apoptotic response, was determined for each compound tested. EC50 values were determined either specifically by data analysis software, or by estimates based on the effective concentration range of each compound (ECR=min. effective dose-min. dose to peak effect). These FS and EC50 values for the tested compounds are listed above in Table 6.

COc1cc(OC)c(/C=C2/C(C)=C(CC(=O)NCc3ccccc3)c3cc(F)ccc32)c(OC)c1 [Example 55, (Z)-5-fluoro-2-methyl-1-(2,4,6-trimethoxybenzylidene)-3-(N-benzyl)-indenylacetamide]
IC50 [1]: 500 nM | COX I % Inhibition (100 μM) (COX I): <25%

COc1cc(OC)c(OC)cc1/C=C1/C(C)=C(CC(=O)NCc2ccccc2)c2cc(F)ccc21 [Example 58, (Z)-5-fluoro-2-methyl-1-(2,4,5-trimethoxybenzylidene)-3-(N-benzyl)-indenylacetamide]
IC50 [1]: 980 nM | COX I % Inhibition (100 μM) (COX I): <25% | Morphology % Apoptotic Cells (1 μM) [2]: 52% | EC50 [3]: 0.7 µM | DNA Fragmentation FS (100 μM) [3]: 2.5

C=CCNC(=O)CC1=C(C)/C(=C/c2cc(OC)c(OC)c(OC)c2)c2ccc(F)cc21 [Example 28, (Z)-5-fluoro-2-methyl-1-(3,4,5-trimethoxybenzylidene)-3-(N-allyl)-indenylacetamide]
IC50 [1]: 370 nM | COX I % Inhibition (100 μM) (COX I): <25% | Morphology % Apoptotic Cells (1 μM) [2]: 35% | EC50 [3]: 0.23 µM | DNA Fragmentation FS (100 μM) [3]: 2.3

COc1ccc(CN(C(=O)CC2=C(C)/C(=C/c3cc(OC)c(OC)c(OC)c3)c3ccc(F)cc32)c2ccccn2)cc1 [Example 35, (Z)-5-fluoro-2-methyl-1-(3,4,5-trimethoxybenzylidene)-3-(N-4-methoxybenzyl-N-(2-pyridinyl))-indenylacetamide]
IC50 [1]: > 10000 nM | COX I % Inhibition (values marked *) (COX I): 37* % | Morphology % Apoptotic Cells (1 μM) [2]: 40% | EC50 [3]: > 10 µM | DNA Fragmentation FS (100 μM) [3]: <2

COc1cc(/C=C2/C(C)=C(CC(=O)N[C@@H](O)Cc3ccccc3)c3cc(F)ccc32)cc(OC)c1OC [Example 46, (Z)-5-fluoro-2-methyl-1-(3,4,5-trimethoxybenzylidene)-3-(N-(S)-1-hydroxy-2-phenylethyl)-idenylacetamide]
IC50 [1]: > 10000 nM | COX I % Inhibition (values marked *) (COX I): 98* % | Morphology % Apoptotic Cells (1 μM) [2]: 20% | EC50 [3]: > 10 µM | DNA Fragmentation FS (100 μM) [3]: 4.8

COc1cc(/C=C2/C(C)=C(CC(=O)N(Cc3ccccc3)C(C)O)c3cc(F)ccc32)cc(OC)c1OC (centres unmarked) [Example 47, (Z)-5-fluoro-2-methyl-1-(3,4,5-trimethoxybenzylidene)-3-(N-benzyl-N-(1-hydroxyethyl))-idenylacetamide]
IC50 [1]: 4100 nM | COX I % Inhibition (values marked *) (COX I): 37* % | Morphology % Apoptotic Cells (1 μM) [2]: 20% | EC50 [3]: 5.7 µM | DNA Fragmentation FS (100 μM) [3]: 4.4

COc1cc(/C=C2/C(C)=C(CC(=O)NCc3cc(F)ccc3F)c3cc(F)ccc32)cc(OC)c1OC [Example 8, (Z)-5-fluoro-2-methyl-1-(3,4,5-trimethoxybenzylidene)-3-(N-2,5-difluorobenzyl)-indenylacetamide]
IC50 [1]: 120 nM | COX I % Inhibition (100 μM) (COX I): <25% | Morphology % Apoptotic Cells (1 μM) [2]: 48% | EC50 [3]: 0.21 µM | DNA Fragmentation FS (100 μM) [3]: <2

COc1cc(/C=C2/C(C)=C(CC(=O)N(Cc3ccccc3)c3ccccn3)c3cc(F)ccc32)cc(OC)c1OC [Example 38, (Z)-5-fluoro-2-methyl-1-(3,4,5-trimethoxybenzylidene)-3-(N-benzyl-N-(2-pyridinyl))-indenylacetamide]
IC50 [1]: > 10000 nM | COX I % Inhibition (values marked *) (COX I): 35* % | Morphology % Apoptotic Cells (1 μM) [2]: 20% | EC50 [3]: > 10 µM | DNA Fragmentation FS (100 μM) [3]: <2

COc1cc(/C=C2/C(C)=C(CC(=O)NCc3ccccc3Br)c3cc(F)ccc32)cc(OC)c1OC [Example 33, (Z)-5-fluoro-2-methyl-1-(3,4,5-trimethoxybenzylidene)-3-(N-2-bromobenzyl)-indenylacetamide]
IC50 [1]: 1800 nM | COX I % Inhibition (values marked *) (COX I): 49* % | Morphology % Apoptotic Cells (1 μM) [2]: 28% | EC50 [3]: 4 µM | DNA Fragmentation FS (100 μM) [3]: 3.7

COc1cc(/C=C2/C(C)=C(CC(=O)Nc3ccc(Br)cc3)c3cc(F)ccc32)cc(OC)c1OC [Example 23, (Z)-5-fluoro-2-methyl-1-(3,4,5-trimethoxybenzylidene)-3-(N-4-bromophenyl)-indenylacetamide]
IC50 [1]: 8000 nM | COX I % Inhibition (100 μM) (COX I): <25%

— US6403831B1, “Substituted benzylidene indenyl formamides, acetamides and propionamides” (Cell Pathways, Inc., priority 1996, dated 2002)
